# Publication PMC2095803 (Nucleic Acids Research, 2007)
# Tests used:
# [1] = molecular target: T1, Bst DNA polymerase (Geobacillus stearothermophilus, UniProt P52026); assay: PEP termination assay; type: biochemical, Bacillus stearothermophilus
# T1 sequence (P52026 289-876 limits assumed): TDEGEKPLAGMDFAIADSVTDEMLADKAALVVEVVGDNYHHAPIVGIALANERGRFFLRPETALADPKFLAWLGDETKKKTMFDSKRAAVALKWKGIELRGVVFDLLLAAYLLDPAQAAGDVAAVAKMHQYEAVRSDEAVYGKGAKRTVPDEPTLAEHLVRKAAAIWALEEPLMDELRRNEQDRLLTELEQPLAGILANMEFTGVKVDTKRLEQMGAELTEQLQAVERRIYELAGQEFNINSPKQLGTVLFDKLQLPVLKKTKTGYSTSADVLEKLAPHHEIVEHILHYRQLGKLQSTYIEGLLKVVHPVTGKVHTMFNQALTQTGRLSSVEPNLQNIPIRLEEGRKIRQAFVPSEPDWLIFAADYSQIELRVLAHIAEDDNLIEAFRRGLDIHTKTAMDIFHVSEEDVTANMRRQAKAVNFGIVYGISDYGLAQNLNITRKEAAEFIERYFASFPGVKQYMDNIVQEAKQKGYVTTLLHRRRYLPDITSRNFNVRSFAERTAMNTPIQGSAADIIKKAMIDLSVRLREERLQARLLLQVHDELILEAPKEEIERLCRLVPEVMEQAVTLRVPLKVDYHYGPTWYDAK
# [2] = molecular target: T1, Bst DNA polymerase; assay: Five-base CRT sequencing experiment on solid support; type: biochemical, Bacillus stearothermophilus
# [3] = molecular target: Taq DNA polymerase (Thermus aquaticus, UniProt P19821); assay: PEP termination assay; type: biochemical, Thermus aquaticus YT-1
# Taq DNA polymerase, sequence (P19821 whole entry): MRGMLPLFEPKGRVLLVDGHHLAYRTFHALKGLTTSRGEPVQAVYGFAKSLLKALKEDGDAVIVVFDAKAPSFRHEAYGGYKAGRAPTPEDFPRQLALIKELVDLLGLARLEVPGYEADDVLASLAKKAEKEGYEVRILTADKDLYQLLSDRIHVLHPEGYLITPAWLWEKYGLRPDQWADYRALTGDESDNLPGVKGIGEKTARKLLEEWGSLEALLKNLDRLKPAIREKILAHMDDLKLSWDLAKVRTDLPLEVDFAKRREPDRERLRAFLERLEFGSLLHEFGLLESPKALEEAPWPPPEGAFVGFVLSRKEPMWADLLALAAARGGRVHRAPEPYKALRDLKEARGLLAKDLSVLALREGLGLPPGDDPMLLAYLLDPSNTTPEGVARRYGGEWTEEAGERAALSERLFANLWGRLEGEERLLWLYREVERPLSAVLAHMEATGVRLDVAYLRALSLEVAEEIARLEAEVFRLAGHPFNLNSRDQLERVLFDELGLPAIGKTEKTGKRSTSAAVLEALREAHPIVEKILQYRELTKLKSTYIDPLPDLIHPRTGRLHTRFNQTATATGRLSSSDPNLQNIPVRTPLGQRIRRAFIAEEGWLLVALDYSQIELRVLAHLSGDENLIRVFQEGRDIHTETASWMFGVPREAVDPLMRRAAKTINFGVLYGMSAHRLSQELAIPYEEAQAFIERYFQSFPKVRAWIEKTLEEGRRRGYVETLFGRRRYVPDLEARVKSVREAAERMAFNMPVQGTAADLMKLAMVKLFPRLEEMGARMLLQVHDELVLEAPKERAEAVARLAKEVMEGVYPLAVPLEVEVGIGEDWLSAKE
# [4] = molecular target: T2, Vent(exo−) DNA polymerase (Thermococcus litoralis, UniProt P30317, D141A/E143A); assay: PEP termination assay; type: biochemical
# T2 sequence (P30317 with tags, fused parts or gaps D141A/E143A): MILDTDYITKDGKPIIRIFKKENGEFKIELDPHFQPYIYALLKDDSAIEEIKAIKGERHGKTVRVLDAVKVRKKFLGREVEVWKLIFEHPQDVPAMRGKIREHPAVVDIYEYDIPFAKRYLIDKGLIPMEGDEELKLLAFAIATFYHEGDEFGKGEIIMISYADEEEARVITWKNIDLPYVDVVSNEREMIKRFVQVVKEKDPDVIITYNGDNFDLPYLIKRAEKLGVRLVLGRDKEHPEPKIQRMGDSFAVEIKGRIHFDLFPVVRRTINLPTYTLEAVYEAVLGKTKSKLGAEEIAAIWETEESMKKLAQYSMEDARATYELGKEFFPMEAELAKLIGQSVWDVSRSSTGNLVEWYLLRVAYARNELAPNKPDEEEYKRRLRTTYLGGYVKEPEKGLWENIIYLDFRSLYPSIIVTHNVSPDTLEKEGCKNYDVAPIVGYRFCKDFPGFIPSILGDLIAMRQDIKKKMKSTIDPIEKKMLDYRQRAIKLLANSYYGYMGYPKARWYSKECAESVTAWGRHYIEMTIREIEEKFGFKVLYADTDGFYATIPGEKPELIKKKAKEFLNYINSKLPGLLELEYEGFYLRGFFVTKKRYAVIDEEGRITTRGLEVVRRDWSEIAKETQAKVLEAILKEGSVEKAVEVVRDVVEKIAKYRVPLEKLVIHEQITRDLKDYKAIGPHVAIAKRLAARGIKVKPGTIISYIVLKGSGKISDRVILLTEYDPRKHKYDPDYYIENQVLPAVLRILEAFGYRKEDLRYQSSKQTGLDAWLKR
structure (smiles),measurement,setting,value
"O=[N+]([O-])c1ccccc1CNc1ncnc2c1ncn2[C@H]1C[C@H](O)[C@@H](COP(=O)(O)OP(=O)(O)OP(=O)(O)O)O1 [Compound IIIc, N^6-(2-Nitrobenzyl)-2’-deoxyadenosine-5’-triphosphate]",IC50,[1],10 nM
same,% 1st Base,"[1]; Bst, 25× IC50, oligoTemplate-3",99.1 ± 0.3%
same,% 2nd Base,"[1]; Bst, 25× IC50, oligoTemplate-3",<0.1%
same,% Primer,"[1]; Bst, 25× IC50, oligoTemplate-3",0.9 ± 0.3%
same,Extension / termination of DNA synthesis on 10-thymidine template,"[1]; Bst, at 25× its IC50 value",efficiently incorporated and terminated Bst DNA synthesis at the first-base position
same,Share of total signal derived from the correct +1 product,[2],≥ 80%
same,Estimated signal S,"[2]; S = (Ceff)^RL, five-base read",68.4%
same,Signal for the correct +1 product (T × C),[2]; at cycle five,40%
same,Incorporation efficiency (I),"[2]; first cycle, on a solid support, 250 nM, Bst",98.6%
same,Deprotection efficiency (D),"[2]; first cycle, on a solid support, 365 nm light",94%
same,Cycle efficiency (Ceff),"[2]; first cycle, product of I and D, on a solid support",92.7%
same,IC50,[3],300 nM
same,% 1st Base,"[3]; Taq, 25× IC50, oligoTemplate-3",98.7 ± 0.4%
same,% 2nd Base,"[3]; Taq, 25× IC50, oligoTemplate-3",<0.1%
same,% Primer,"[3]; Taq, 25× IC50, oligoTemplate-3",1.3 ± 0.4%
same,IC50,[4],2.1 nM
